Consider 10 compounds from ChEMBL document CHEMBL1201862, “PubChem BioAssay data set” (2004).

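A five-concentration, 48-hour dose response in 96-well plates underlies each endpoint, interpolated linearly between surrounding concentrations. At the GI50, growth is halved.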 Active and inactive are the calls of the source. No stated cut-off is given here; in the data, active = GI50 up to about 1.1 µM and inactive = higher.

Test systems include A498; CAKI-1; COLO 205; EKVX; HCT-15; HOP-92; KM12; MDA-MB-435; NCI-H226; OVCAR-4; OVCAR-8; SF-268; SK-MEL-28; SK-MEL-5; SN12C; SNB-19; T47D; TK-10; U-251; UO-31.
Assay in all cases: growth of human tumour cells (NCI), 48 h

`O=C(O)Cc1ccc(Oc2nc3ccccc3nc2C(=O)O)cc1`: the GI50 with A498 was > 100 µM (inactive); in the experiment with CAKI-1 it was 96.8 µM (inactive); in the experiment with COLO 205, > 100 µM (inactive); in the experiment with EKVX, > 100 µM (inactive); with HCT-15, over 100 µM; in the experiment with HOP-92 it was 79.1 µM (inactive). In addition, the GI50 in the experiment on KM12 is > 100 µM (inactive); with MDA-MB-435 it was 12.8 µM (inactive); in the experiment with NCI-H226 it was > 100 µM (inactive); in the experiment on OVCAR-4, > 100 µM (inactive); in the experiment with OVCAR-8, > 100 µM (inactive); with SF-268, > 100 µM (inactive). For the same compound, the GI50 in the experiment with SK-MEL-28, in the experiment on SK-MEL-5, in the experiment with SN12C, in the experiment with SNB-19, with T47D and in the experiment on TK-10 was > 100 µM (inactive) in each case. Further, the GI50 in the experiment on U-251 and in the experiment with UO-31 was > 100 µM (inactive) in each case.
On to `CC1=C(C)SC(=C2Sc3c(n(C)c(=O)n(C)c3=O)S2)S1`, for which the GI50 in the experiment on A498 was 27.4 µM (inactive); in the experiment with CAKI-1, 64.3 µM (inactive); in the experiment with COLO 205, 89.9 µM (inactive); in the experiment on EKVX it was > 100 µM (inactive); with HCT-15 it was over 100 µM; in the experiment on HOP-92 it was 53.7 µM (inactive). The GI50 was > 100 µM (inactive) in the experiment with KM12; 98.6 µM (inactive) in the experiment on MDA-MB-435; 20 µM (inactive) in the experiment with NCI-H226; 21.4 µM (inactive) with OVCAR-4; 23.6 µM (inactive) in the experiment on OVCAR-8; 43.8 µM (inactive) in the experiment with SF-268. Moreover, the GI50 was > 100 µM (inactive) in the experiment on SK-MEL-28; 33.7 µM (inactive) in the experiment on SK-MEL-5; 35 µM (inactive) with SN12C; 32.3 µM (inactive) in the experiment on SNB-19; > 100 µM (inactive) in the experiment with T47D; 27.9 µM (inactive) in the experiment on TK-10. For the same compound, the results for the GI50 in the experiment with U-251 and with UO-31 were 4.14 µM (inactive) and 59 µM (inactive), respectively.
As to `COc1cccc([C@@H]2C/C(=N\NC(=O)C(=O)N[C@@H](C)c3ccccc3)c3cc4c(cc3N2)OCO4)c1`, the GI50 in the experiment on A498 was 47.4 µM (inactive); with CAKI-1 it was 48.1 µM (inactive); in the experiment with COLO 205 it was 25.5 µM (inactive); in the experiment on EKVX it was 65.9 µM (inactive); in the experiment with HCT-15, 27.4 µM; in the experiment with HOP-92, > 100 µM (inactive). Also, the GI50 is 6.89 µM (inactive) with KM12; 2.28 µM (inactive) in the experiment on MDA-MB-435; 10.5 µM (inactive) in the experiment with NCI-H226; 74 µM (inactive) in the experiment with OVCAR-4; 29.9 µM (inactive) in the experiment on SF-268; > 100 µM (inactive) with SK-MEL-28. Further, the GI50 with SK-MEL-5 is 3.06 µM (inactive); with SN12C, 42 µM (inactive); with SNB-19 it was 35 µM (inactive); in the experiment on T47D it was > 100 µM (inactive); in the experiment on TK-10, > 100 µM (inactive); with U-251, > 100 µM (inactive). Further, in the experiment with UO-31, the GI50 was > 100 µM (inactive).
Turning to `CCn1c(-c2ccc(/N=N/Nc3ccc(-c4n[nH]c(=S)n4CC)cc3)cc2)n[nH]c1=S`, the GI50 in the experiment on A498 was 3.3 µM (inactive); in the experiment on CAKI-1 it was 2.7 µM (inactive); in the experiment with COLO 205, 2.69 µM (inactive); with EKVX, 2.41 µM (inactive); in the experiment with HCT-15, 3.03 µM; with HOP-92 it was 2.79 µM (inactive). For the same compound, the GI50 with KM12 was 2.44 µM (inactive); in the experiment on MDA-MB-435, 2.45 µM (inactive); in the experiment with NCI-H226, 2.24 µM (inactive); in the experiment on OVCAR-4 it was 1.97 µM (inactive); in the experiment with OVCAR-8, 2.28 µM (inactive); in the experiment with SF-268, 3.24 µM (inactive). Also, the GI50 in the experiment with SK-MEL-28 was 4.18 µM (inactive); with SK-MEL-5, 1.49 µM (inactive); with SN12C, 3.02 µM (inactive); with SNB-19, 2.55 µM (inactive); with T47D, 0.861 µM (active); with TK-10, 4.92 µM (inactive). Further, the values for the GI50 in the experiment on U-251 and in the experiment with UO-31 were 2.57 µM (inactive) and 2.33 µM (inactive), respectively.
On to `Cc1cc(C)c(C#N)c(SC(=S)NC(=O)c2ccccc2)n1`, for which the GI50 with A498 was > 100 µM (inactive); in the experiment on CAKI-1, > 100 µM (inactive); in the experiment with COLO 205, > 100 µM (inactive); with EKVX it was > 100 µM (inactive); in the experiment on HCT-15 it was over 100 µM; in the experiment on HOP-92, > 100 µM (inactive). Besides, the GI50 with KM12, with MDA-MB-435, with NCI-H226, with OVCAR-4, with SF-268 and in the experiment on SK-MEL-28 was > 100 µM (inactive) throughout. The GI50 in the experiment on SK-MEL-5, with SN12C, with SNB-19, with T47D, in the experiment on TK-10 and in the experiment on U-251 was > 100 µM (inactive) each time. For the same compound, the GI50 in the experiment on UO-31 is > 100 µM (inactive).
For the compound `CCSC12OC3(CCCCCN3C1=O)C1C(=O)N(c3ccccc3)C(=O)C12` (stereo unspecified), the GI50 was > 100 µM (inactive) in the experiment with A498; > 100 µM (inactive) with CAKI-1; > 100 µM (inactive) in the experiment on COLO 205; > 100 µM (inactive) in the experiment on EKVX; over 100 µM with HCT-15; > 100 µM (inactive) in the experiment with HOP-92. In addition, the GI50 with KM12, in the experiment on MDA-MB-435, in the experiment with NCI-H226, in the experiment on OVCAR-4, in the experiment with OVCAR-8 and in the experiment with SF-268 was > 100 µM (inactive) each time. The GI50 in the experiment on SK-MEL-28, in the experiment on SK-MEL-5, with SN12C, with SNB-19, with T47D and with TK-10 was > 100 µM (inactive) throughout. The GI50 in the experiment with U-251 and in the experiment with UO-31 was > 100 µM (inactive) each time.
`CC(=O)c1cc(C)n2c1CS[C@@H]2c1ccccc1`: the GI50 is > 100 µM (inactive) in the experiment with A498; 70.5 µM (inactive) with CAKI-1; 12.2 µM (inactive) with COLO 205; 34.9 µM (inactive) in the experiment with EKVX; 31.3 µM with HCT-15; 20.2 µM (inactive) in the experiment on HOP-92. Moreover, the GI50 in the experiment with KM12 was 54.6 µM (inactive); with MDA-MB-435 it was 27.3 µM (inactive); in the experiment with NCI-H226, 41 µM (inactive); in the experiment with OVCAR-4 it was 59.7 µM (inactive); in the experiment with OVCAR-8, 70.8 µM (inactive); with SF-268, 90.2 µM (inactive). In addition, the GI50 was > 100 µM (inactive) in the experiment with SK-MEL-28; 32.2 µM (inactive) in the experiment on SK-MEL-5; 57.3 µM (inactive) in the experiment with SN12C; > 100 µM (inactive) in the experiment with SNB-19; 35.6 µM (inactive) in the experiment on T47D; 91 µM (inactive) in the experiment on TK-10. The figures for the GI50 in the experiment with U-251 and in the experiment with UO-31 were 28.4 µM (inactive) and 64.3 µM (inactive), respectively.
Regarding `CSc1nc(-c2ccccc2)[nH]c(=O)n1`, the GI50 in the experiment on A498 is > 100 µM (inactive); in the experiment with CAKI-1 it was > 100 µM (inactive); in the experiment on COLO 205, > 100 µM (inactive); in the experiment on EKVX, > 100 µM (inactive); in the experiment on HCT-15, over 100 µM; in the experiment with HOP-92 it was > 100 µM (inactive). The GI50 with KM12, in the experiment on MDA-MB-435, with NCI-H226, with OVCAR-4, with OVCAR-8 and with SF-268 was > 100 µM (inactive) in each case. For the same compound, the GI50 in the experiment on SK-MEL-28, in the experiment on SK-MEL-5, with SN12C, in the experiment on SNB-19, with T47D and with TK-10 was > 100 µM (inactive) each time. The GI50 in the experiment on U-251 and in the experiment on UO-31 was > 100 µM (inactive) each time.
For the compound `COc1cc(/C=C2/SC(c3ccccc3)N(c3cc(Cl)ccc3Cl)C2=O)cc(OC)c1OC` (stereo unspecified), the GI50 in the experiment on A498 was > 100 µM (inactive); in the experiment on CAKI-1, 23.2 µM (inactive); in the experiment on COLO 205, > 100 µM (inactive); in the experiment with EKVX, 84.9 µM (inactive); in the experiment with HCT-15, 50.6 µM; in the experiment on HOP-92, > 100 µM (inactive). The GI50 is 35.7 µM (inactive) with KM12; 22.3 µM (inactive) in the experiment with MDA-MB-435; > 100 µM (inactive) in the experiment on NCI-H226; 49.8 µM (inactive) in the experiment on OVCAR-4; > 100 µM (inactive) in the experiment on OVCAR-8; 87.7 µM (inactive) in the experiment on SK-MEL-28. Also, the GI50 is 59.7 µM (inactive) with SK-MEL-5; > 100 µM (inactive) in the experiment on SN12C; > 100 µM (inactive) in the experiment on SNB-19; 30.1 µM (inactive) in the experiment with T47D; > 100 µM (inactive) with TK-10; 63.4 µM (inactive) in the experiment on U-251. Besides, the GI50 in the experiment on UO-31 is 75.3 µM (inactive).
Consider `O=c1oc2ncccc2n1Cc1ccc([N+](=O)[O-])cc1`, for which the GI50 with A498 is > 100 µM (inactive); in the experiment with CAKI-1 it was > 100 µM (inactive); in the experiment on COLO 205 it was > 100 µM (inactive); in the experiment with EKVX, > 100 µM (inactive); in the experiment with HCT-15, over 100 µM; with HOP-92, > 100 µM (inactive). The GI50 in the experiment on KM12, in the experiment on MDA-MB-435, in the experiment on NCI-H226, with OVCAR-4, in the experiment on OVCAR-8 and in the experiment with SF-268 was > 100 µM (inactive) each time. Also, the GI50 with SK-MEL-28, in the experiment with SK-MEL-5, with SN12C, in the experiment on T47D, with TK-10 and in the experiment on U-251 was > 100 µM (inactive) in each case. Also, in the experiment on UO-31, the GI50 was 26.5 µM (inactive).
